From article PMC4657098, “A Review of the Updated Pharmacophore for the Alpha 5 GABA(A) Benzodiazepine Receptor Model” (International Journal of Medicinal Chemistry, 2015)
pKi: −log10 of the molar value. Several values for one entry are separate records, joined by “and”; a condition that tells them apart may be missing. Identical values can stand only once. Like-named read-outs stand apart in the source and are kept apart here.

Legend:
[1] = test system: dopamine neurons in the VTA; conditions: rat, in vivo; cited from earlier work
α4β3γ2 GABAA/BzR [2] = target: T1, α4β3γ2 GABAA/BzR (Homo sapiens, UniProt P18507+P48169); assay: biochemical; format: binding
T1 construct: expressed in transfected cells; host or cells: LTK cells (given for XLi-093 only)

[3] = test system: Bz BS of GABA(A) receptors; conditions: cited from earlier work
α3β3γ2 GABAA/BzR [4] = target: T2, α3β3γ2 GABAA/BzR (Homo sapiens, UniProt P18507+P34903); assay: Competition binding to HEK cell membranes, α3β3γ2; set-up: expressed in transfected cells
α5β3γ2 GABAA/BzR [5] = target: T3, α5β3γ2 GABAA/BzR (Homo sapiens, UniProt P18507+P31644); assay: Competition binding to HEK cell membranes, α5β3γ2; set-up: expressed in transfected cells
α6β3γ2 GABAA/BzR [6] = target: T4, α6β3γ2 GABAA/BzR (Homo sapiens, UniProt P18507+Q16445); assay: Competition binding to HEK cell membranes, α6β3γ2; set-up: expressed in transfected cells
α1β3γ2 GABAA/BzR [7] = target: T5, α1β3γ2 GABAA/BzR (Homo sapiens, UniProt P14867+P18507); set-up: expressed in transfected cells; host or cells: LTK cells (given for XLi-093 only); conditions: cited from earlier work
α5β3γ2 GABAA/BzR [8] = target: T3, α5β3γ2 GABAA/BzR; set-up: expressed in transfected cells; host or cells: LTK cells (given for XLi-093 only); conditions: cited from earlier work
α6β3γ2 GABAA/BzR [9] = target: T4, α6β3γ2 GABAA/BzR; set-up: expressed in transfected cells; host or cells: LTK cells (given for XLi-093 only); conditions: cited from earlier work
α4β3γ2 GABAA/BzR [10] = target: T1, α4β3γ2 GABAA/BzR; conditions: cited from earlier work
α1β3γ2 GABAA/BzR [11] = target: T5, α1β3γ2 GABAA/BzR; assay: Competition binding to HEK cell membranes, α1β3γ2; set-up: expressed in transfected cells
α2β3γ2 GABAA/BzR [12] = target: T6, α2β3γ2 GABAA/BzR (Homo sapiens, UniProt P18507+P47869); assay: Competition binding to HEK cell membranes, α2β3γ2; set-up: expressed in transfected cells
α2β3γ2 GABAA/BzR [13] = target: T6, α2β3γ2 GABAA/BzR; set-up: expressed in transfected cells; host or cells: LTK cells (given for XLi-093 only); conditions: cited from earlier work
α3β3γ2 GABAA/BzR [14] = target: T2, α3β3γ2 GABAA/BzR; set-up: expressed in transfected cells; host or cells: LTK cells (given for XLi-093 only); conditions: cited from earlier work
[15] = test system: human airway smooth muscle cells; conditions: 200 μM; cited from earlier work
[16] = Figure 33, αxβ3γ2, read-out: Affinity Ki α1
[17] = Figure 33, αxβ3γ2, read-out: Affinity Ki α5
[18] = Figure 33, αxβ3γ2, read-out: Affinity Ki α6
[19] = Figure 33, αxβ3γ2, read-out: Affinity Ki α4
[20] = Figure 33, αxβ3γ2, read-out: Affinity Ki α2
[21] = Figure 33, αxβ3γ2, read-out: Affinity Ki α3

Compound: NC1=N[C@H](O)[C@H]2[C@H]3O[C@]4(O)O[C@@H]([C@@H](O)[C@@]2(N1)[C@@H]4O)[C@]3(O)CO [TTX, Tetrodotoxin, reference compound]
- cells/track after infusion in the ventral HPC of haloperidol-treated rats [1]: reversed the haloperidol-induced reduction in cells/track in SAL, but not MAM

Compound: C#Cc1ccc2[nH]c3cnc(C(=O)OC(C)(C)C)cc3c2c1 [WY-A-99-2 (WYS8)]
- pKi (α4β3γ2 GABAA/BzR [2]): 5.70
- pharmacological properties compared with classical benzodiazepine receptor antagonists [3]: near GABA neutral antagonists
- pKi (α3β3γ2 GABAA/BzR [4]; Ki α3): 8.79
- pKi (α5β3γ2 GABAA/BzR [5]; Ki α5): 6.68 and 7.29
- pKi (α6β3γ2 GABAA/BzR [6]; Ki α6): 5.70
- pKi (α1β3γ2 GABAA/BzR [7]; [16]): 9.01
- pKi (α5β3γ2 GABAA/BzR [8]; [17]): 5.83
- pKi (α6β3γ2 GABAA/BzR [9]; [18]): 5.70

Compound: CC(C)(C)OC(=O)c1cc2c(cn1)[nH]c1ccc(C#C[Si](C)(C)C)cc12 [WY-B-14 (WYS7)]
- pKi (α4β3γ2 GABAA/BzR [2]): 5.70
- pKi (α4β3γ2 GABAA/BzR [10]; [19]): 5.70
- pKi (α1β3γ2 GABAA/BzR [11]; Ki α1): 8.16 and 8.07
- pKi (α2β3γ2 GABAA/BzR [12]; Ki α2): 7.52 and 6.78
- pKi (α3β3γ2 GABAA/BzR [4]; Ki α3): 7.44 and 6.61
- pKi (α6β3γ2 GABAA/BzR [6]; Ki α6): 6.00 and 5.30
- pKi (α1β3γ2 GABAA/BzR [7]; [16]): 8.17
- pKi (α2β3γ2 GABAA/BzR [13]; [20]): 7.52
- pKi (α3β3γ2 GABAA/BzR [14]; [21]): 7.44
- pKi (α5β3γ2 GABAA/BzR [8]; [17]): 6.97
- pKi (α6β3γ2 GABAA/BzR [9]; [18]): 6.00

Compound: O=C(OCC(F)(F)F)c1cc2c(cn1)[nH]c1ccc(I)cc12 [WY-B-20]
- pKi (α4β3γ2 GABAA/BzR [2]): 5.70
- pKi (α4β3γ2 GABAA/BzR [10]; [19]): 5.70
- pKi (α1β3γ2 GABAA/BzR [11]; Ki α1): 7.92
- pKi (α2β3γ2 GABAA/BzR [12]; Ki α2): 7.41
- pKi (α3β3γ2 GABAA/BzR [4]; Ki α3): 7.33
- pKi (α5β3γ2 GABAA/BzR [5]; Ki α5): 6.91
- pKi (α6β3γ2 GABAA/BzR [6]; Ki α6): 5.52
- pKi (α1β3γ2 GABAA/BzR [7]; [16]): 7.92
- pKi (α2β3γ2 GABAA/BzR [13]; [20]): 7.41
- pKi (α3β3γ2 GABAA/BzR [14]; [21]): 7.33
- pKi (α5β3γ2 GABAA/BzR [8]; [17]): 6.91
- pKi (α6β3γ2 GABAA/BzR [9]; [18]): 5.52

Compound: O=C(OCC(F)(F)F)c1cc2c(cn1)[nH]c1ccc(-c3cccs3)cc12 [WY-B-27-2]
- pKi (α4β3γ2 GABAA/BzR [2]; read-out: Ki α4): 5.70
- pKi (α4β3γ2 GABAA/BzR [10]; read-out: Affinity Ki α4): 5.70
- pKi (α1β3γ2 GABAA/BzR [11]; read-out: Ki α1): 8.04
- pKi (α2β3γ2 GABAA/BzR [12]; read-out: Ki α2): 6.95
- pKi (α3β3γ2 GABAA/BzR [4]; read-out: Ki α3): 7.14
- pKi (α5β3γ2 GABAA/BzR [5]; read-out: Ki α5): 6.35
- pKi (α6β3γ2 GABAA/BzR [6]; read-out: Ki α6): 5.70
- pKi (α1β3γ2 GABAA/BzR [7]; read-out: Affinity Ki α1): 8.04
- pKi (α2β3γ2 GABAA/BzR [13]; read-out: Affinity Ki α2): 7.89
- pKi (α3β3γ2 GABAA/BzR [14]; read-out: Affinity Ki α3): 7.14
- pKi (α5β3γ2 GABAA/BzR [8]; read-out: Affinity Ki α5): 6.35
- pKi (α6β3γ2 GABAA/BzR [9]; read-out: Affinity Ki α6): 5.70

Compound: CCOC(=O)c1cc2c(cn1)[nH]c1ccc(C#C[Si](C)(C)C)cc12 [WY-B-99-1]
- pKi (α4β3γ2 GABAA/BzR [2]): 5.70
- pKi (α4β3γ2 GABAA/BzR [10]; [19]): 5.70
- pKi (α1β3γ2 GABAA/BzR [11]; Ki α1): 8.36
- pKi (α1β3γ2 GABAA/BzR [11]; read-out: Ki α1): 8.36
- pKi (α2β3γ2 GABAA/BzR [12]; Ki α2): 8.35
- pKi (α2β3γ2 GABAA/BzR [12]; read-out: Ki α2): 8.35
- pKi (α3β3γ2 GABAA/BzR [4]; Ki α3): 8.25
- pKi (α3β3γ2 GABAA/BzR [4]; read-out: Ki α3): 8.25
- pKi (α5β3γ2 GABAA/BzR [5]; Ki α5): 7.33
- pKi (α5β3γ2 GABAA/BzR [5]; read-out: Ki α5): 7.33
- pKi (α6β3γ2 GABAA/BzR [6]; Ki α6): 5.70
- pKi (α1β3γ2 GABAA/BzR [7]; [16]): 8.36
- pKi (α2β3γ2 GABAA/BzR [13]; [20]): 8.35
- pKi (α3β3γ2 GABAA/BzR [14]; [21]): 8.25
- pKi (α5β3γ2 GABAA/BzR [8]; [17]): 7.33
- pKi (α6β3γ2 GABAA/BzR [9]; [18]): 5.70

Compound: CCOC(=O)c1ncc2[nH]c3ccc(OCc4ccccc4)cc3c2c1COC [ZK 93423, 6-(benzyloxy)-4-(methoxymethyl)-β-carboline-3-carboxylic acid ethyl ester, reference compound]
- modulation ([3]; Supplement Table 1): agonist
- pKi (α1β3γ2 GABAA/BzR [11]; Ki α1): 8.39
- pKi (α2β3γ2 GABAA/BzR [12]; Ki α2): 8.38
- pKi (α3β3γ2 GABAA/BzR [4]; Ki α3): 8.22
- pKi (α5β3γ2 GABAA/BzR [5]; Ki α5): 8.35
- pKi (α6β3γ2 GABAA/BzR [6]; Ki α6): 6.00

Compound: CN1CCc2cccc3c2[C@H]1Cc1ccc(O)c(O)c1-3 [apomorphine, reference compound]
- number of active dopamine neurons, MAM rats withdrawn from repeated HAL [1]: no effect
- number of spontaneously active dopamine neurons, SAL rats withdrawn from repeated HAL [1]: increased

Compound: C#CC#Cc1ccc2c(c1)C(=O)N1CCC[C@H]1c1c(C(=O)OCC)ncn1-2 [compound 8]
- pKi (α4β3γ2 GABAA/BzR [10]; Figure 4, read-out: Ki α4): < 6.00
- pKi (α1β3γ2 GABAA/BzR [7]; Figure 4, read-out: Ki α1): < 6.00
- pKi (α2β3γ2 GABAA/BzR [13]; Figure 4, read-out: Ki α2): < 6.00
- pKi (α3β3γ2 GABAA/BzR [14]; Figure 4, read-out: Ki α3): < 6.00
- pKi (α5β3γ2 GABAA/BzR [8]; Figure 4, read-out: Ki α5): 7.19
- pKi (α6β3γ2 GABAA/BzR [9]; Figure 4, read-out: Ki α6): < 6.00

Compound: COc1ccc(-c2ccc(=N)n(CCCC(=O)O)n2)cc1 [gabazine, reference compound]
- effect on the attenuation by SH-053-2′F-R-CH3 of the calcium increase [15]: significantly blocked

Compound: O=C(CCCN1CCC(O)(c2ccc(Cl)cc2)CC1)c1ccc(F)cc1 [haloperidol, reference compound]
- number of spontaneously active dopamine neurons after repeated treatment, SAL and MAM rats [1]: reduction

Compound: Ro15-4513 [reference compound]
- modulation [3]: inverse agonist
- pKi (α2β3γ2 GABAA/BzR [12]; read-out: Ki α2): 8.59
- pKi (α5β3γ2 GABAA/BzR [5]; read-out: Ki α5): 9.59
